In patent US8492510B2, “Multifunctional degradable nanoparticles with control over size and functionalities” (Vanderbilt University, priority 2007, dated 2013):

Tested on: human microvascular endothelial cells (HMEC)
Test: Internalization into HMEC, temperature effect and control experiments (confocal microscopy)
Assay type: cell-based
Settings: 10 uM, 60 min, 37° C.
Protocol: The human microvascular endothelial cells (HMEC) cells were incubated with conjugates (10 uM) for 2.5 min at 4° C. or at 37° C.
The HMEC cells were incubated with conjugates (1 uM) for 30 min at 4° C. or at 37° C.
(b) The HMEC cells were incubated with Boc-protected guanidinylated FD-2 (10 uM) for 60 min at 37° C.
Internalization of FD-1 and FD-2 in mammalian cells was assessed using two different cell lines and a previously described method [Futaki, S.; Nakase, I.; Suzuki, T.; Youjun, Y.; Sugiura, Y. Biochemistry 2002, 41, 7925.] with NIH-3T3 fibroblasts and HMEC (human microvascular endothelial cells) and a Zeiss LSM 510 confocal microscope. […] [Futaki, S.; Nakase, I.; Suzuki, T.; Youjun, Y.; Sugiura, Y. Biochemistry 2002, 41, 7925; Vivès, E.; Brodin, P.; Lebleu, B. J. Biol. Chem. 1997, 272, 16010.] Furthermore, the extent of internalization increased in an incubation time-dependent manner, and it was observed that after just 10 min, the fluorescence intensity of cells treated with FD-2 was near saturation. […] L. Org. Lett. 2005, 7, 4815.] but also regulate the subcellular localization of the molecule and its putative cargo. […] Therefore, the dendrimer with a hexyl spacer crosses the cell membrane faster than the molecule with an ethyl chain. On the other hand, the localization patterns can also be controlled by the length of the spacer. […]

## fluorescein isothiocyanate [free FITC]
  fluorescence of cells in control experiments: no
